According to ChEMBL document CHEMBL1157251, “Bioactive compounds from Peperomia pellucida” (J Nat Prod, 2006):

Legend:
HL-60 [1] = assay: Antiproliferative effect against human HL60 cells after 69 hrs; type: functional, cell-based; conditions: HL-60, 69 h
HL-60 [2] = assay: Growth inhibition of human HL60 cells at 20 uM after 69 hrs; type: functional; conditions: HL-60, 69 h, read-out: GI
MCF7 [3] = assay: Antiproliferative effect against human MCF7 cells after 72 hrs by MTT assay; type: functional, cell-based; conditions: MCF7, 72 h
MCF7 [4] = assay: Growth inhibition of human MCF7 cells at 20 uM after 72 hrs by MTT assay; type: functional; conditions: MCF7, 72 h, read-out: GI
HeLa [5] = assay: Antiproliferative effect against human HeLa cells after 69 hrs by MTT assay; type: functional, cell-based
HeLa [6] = assay: Growth inhibition of human HeLa cells at 20 uM after 69 hrs by MTT assay; type: functional; conditions: read-out: GI
MCF7 [7] = assay: Promotion of cell proliferation in human MCF7 cells; type: functional, cell-based
Estrogen receptor = molecular target: T1, Estrogen receptor (Homo sapiens, UniProt P03372); assay: Agonist activity at human ERalpha expressed in african green monkey CV1 cells by luciferase reporter gene assay relative to 17beta estradiol; type: functional, cell-based, CV-1
T1 sequence (P03372 whole entry): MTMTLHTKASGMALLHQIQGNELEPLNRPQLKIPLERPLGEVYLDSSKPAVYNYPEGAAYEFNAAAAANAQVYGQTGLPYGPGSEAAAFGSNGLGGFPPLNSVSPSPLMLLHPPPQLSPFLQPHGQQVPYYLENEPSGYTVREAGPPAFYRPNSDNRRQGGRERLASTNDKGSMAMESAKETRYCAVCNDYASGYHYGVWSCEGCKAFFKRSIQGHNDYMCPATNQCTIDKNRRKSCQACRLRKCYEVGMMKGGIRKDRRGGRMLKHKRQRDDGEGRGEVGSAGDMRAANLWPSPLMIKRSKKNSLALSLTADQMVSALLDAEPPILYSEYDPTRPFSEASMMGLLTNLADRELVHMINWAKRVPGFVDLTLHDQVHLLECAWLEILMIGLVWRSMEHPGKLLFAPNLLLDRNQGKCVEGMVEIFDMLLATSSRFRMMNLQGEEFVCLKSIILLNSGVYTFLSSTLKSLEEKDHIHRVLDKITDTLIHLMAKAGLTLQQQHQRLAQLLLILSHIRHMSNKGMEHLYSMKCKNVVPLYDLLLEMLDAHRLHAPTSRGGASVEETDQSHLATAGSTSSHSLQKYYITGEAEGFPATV

IC50 (HL-60 [1]) [µM] | IC50 (MCF7 [3]) [µM] | IC50 (HeLa [5]) [µM] | EC50 (MCF7 [7]) [µM] | EC50 (Estrogen receptor) [µM] | SMILES | inhibition of growth at 20 µM (HL-60 [2]) [%] | inhibition of growth at 20 µM (MCF7 [4]) [%] | inhibition of growth at 20 µM (HeLa [6]) [%]
0.21 | 0.19 | 3.6 | – | – | COc1cc([C@@H]2c3cc4c(cc3[C@@H](O[C@@H]3O[C@@H]5CO[C@@H](C)O[C@H]5[C@H](O)[C@H]3O)[C@H]3COC(=O)[C@H]23)OCO4)cc(OC)c1O [ETOPOSIDE] | 93.5 | 73.5 | 85.3
10.8 | – | – | – | – | COc1cc(C(c2cc(OC)c3c(c2)OCO3)[C@@H]2COC(=O)[C@H]2C)cc(O)c1OC (relative stereo) | 92 | 53.2 | 10
1.8 | 3.9 | 11.1 | – | – | C=C1C(=O)OC[C@H]1C(c1cc(OC)c2c(c1)OCO2)c1cc(OC)c2c(c1)OCO2 [PEPEROMIN E] | 93 | 90.7 | 95
1.4 | 3.8 | 9.1 | – | – | C=C1C(=O)OCC1C(c1cc(OC)c(OC)c(OC)c1)c1cc(OC)c2c(c1)OCO2 (stereo not given) | 92 | 91 | 96
– | – | – | – | – | COc1cc(OC)c(C2CCC(=O)c3c(OC)cc(OC)c(OC)c32)cc1OC (stereo not given) | < 5 | 37.6 | < 5
– | – | – | – | – | COc1cc(C(c2cc(OC)c3c(c2)OCO3)[C@@H]2COC(=O)[C@H]2C)cc2c1OCO2 [PEPEROMIN A] | 17 | 27.7 | < 5
– | – | – | 0.142 | 3.1 | COc1cc([C@H]2O[C@@H](c3cc(OC)c4c(c3)OCO4)[C@@H](CO)[C@@H]2COC(C)=O)cc2c1OCO2 | – | – | –
